# Measured values: publication PMC9986545, “A novel oral formulation of the melanocortin-1 receptor agonist PL8177 resolves inflammation in preclinical studies of inflammatory bowel disease and is gut restricted in rats, dogs, and humans” (Frontiers in Immunology, 2023)
# What was measured:
# [1] = test system: male Wistar rats with DSS-induced colitis; assay: DSS-induced colitis model in rats; type: in vivo
# Description: . Groups of 6 male Wistar rats weighing 200 ± 20 g were used. All animals, except those in the sham group, received 5% DSS in the drinking water for 3 days, from day 1 to day 3, which was then changed to normal drinking water for the following 5 days in the study. The rats in the sham group were given drinking water only. […]. Mesalazine, which is approved for the treatment of IBD, including ulcerative colitis and Crohn’s disease, was administered orally as a positive control (300 mg/kg once daily) starting on day 4 through day 7 for a total of 4 consecutive days ( Figure 1 ). Colitis was assessed by disease activity index (diarrhea and rectal bleeding) during the study and by colon length shortening, colon weight gain, and colon histopathologic assessment after organ harvesting on day 8. At termination on day 8, 24 hours after the last dose, colon tissues were harvested, rinsed, photographed, weighed, and their lengths measured, and then cut into 2 halves 7 cm from the anus. One half of the harvested colon tissue was snap-frozen with liquid nitrogen for cytokine measurement (interferon [IFN]-γ, IL-1β, IL-6, and TNF-α). The other half of the colon tissue was further cut into 3 parts 2.5, 5, and 7 cm from the anus, fixed in 10% formalin, and kept in 70% ethanol for histopathology. The colon length and colon-to-body weight ratio was calculated for each animal according to the formula: colon weight (g)/body weight (g) × 100%. Colon tissues from rats (n=6 per treatment group) were drop-fixed in 4% paraformaldehyde embedded in paraffin, and sectioned at 4 µm. For histologic scoring, colon sections were stained with hematoxylin and eosin. For immunohistochemistry, colon sections were processed for antigen retrieval and immunostained with primary antibody: keratin 18 (K18) (1:400, Bioss, bs-5405R) and with a rabbit-specific biotin-conjugated secondary antibody from HistoWiz (HistoWiz, Inc. Brooklyn, NY). Representative images were taken at 10x magnification and quantification was performed using HistoWiz AI technology counting positive cells versus all nuclei, specifically in the crypts. All analyses were performed by blinded individuals.
# Histologic criteria for the analysis of colitis included abnormalities of mucosal architecture, extent of inflammation, erosion or ulceration, epithelial regeneration, and the percentage involvement of the disease process. The scoring was based on the findings of independent observers by examining 3 colon sections from each animal. Scoring was from 0 = none to 4 = severe for each item, except for percentage involvement of disease process, which scored from 1 (1%–25%) to 4 (76%–100%). Total scores for colitis (total colitis index) were added, resulting in a combined histologic score range from 0 to 60 ( Table S1 ).
# Descriptive statistics were used for assessment of colon damage scores (diarrhea, rectal bleeding, and colon weight gain) (DNBS and DSS rat studies) and for the distribution of PL8177 and main metabolite in the GI tract (Sprague-Dawley rat and dog studies). Mean ± SEM were determined, and 1-way analysis of variance followed by Dunnett’s test was applied for comparison between the vehicle and treated groups. Significance was set at the P<0.05 level.
# Table S1.Scoring Table for Calculating Total Colitis Index Score in DSS Colitis –Induced Rats
# Abnormalities of mucosal None (Norm al) 0
# Minimal for focal, not exceeding laminar propria 1
# Mild abnormality, cystic dilation/aberrant crypts 2
# Moderate or multifocal abnormalities 3
# Severe, entire crypt and epithelium lost 4
# Extent of inflammation None 0
# Minimal for focal, scatter ed calls (<10 %) 1
# Moderate, inflammatory cells extending into the submucosa 3
# Severe, transmural leukocytic infiltrate from mucosa to serosa 4
# Erosion or ulceration No erosion, ulceration, or granulation tissue 0
# Minimal or focal, not exceeding lamina propri a 1
# Severe ulceration or granulation tissue 4
# Epithelial regression Complete regeneration or normal tissue 0 […]
# [2] = test system: mice with colitis; set-up: method as in PMID 9145424; details: twice-daily α-MSH exposure; cited from earlier work
# [3] = Mesalazine 300 mg/kg QD oral, days 4-7, day 8, n=6
Compound,"% Decrease in Colon Weight vs Vehicle Control ([1]; Mesalazine 300 mg/kg QD oral, days 4-7, day 8) [%]","Mean Colon Length (SEM) [1, 3]","Mean Colon Weight (SEM) [1, 3]","Mean Colon Weight/100 g Body Weight (SEM) [1, 3]","Net Increase (SEM) of colon weight/100 g body weight [1, 3]","Mean Body Weight (SEM) (Day 8) ([1]; Mesalazine 300 mg/kg QD oral, days 4-7, n=6)","Number of K18 positive cells in colon crypts (immunohistochemistry) vs vehicle ([1]; PL8177 (100 µg) or mesalazine, day 8)","Total colitis score (total colitis index), mean [SD] ([1]; mesalazine 300 mg/kg QD oral, histology day 8, n=6, range 0-60)",Reduction in fecal blood [2] [%]
Nc1ccc(O)c(C(=O)O)c1 [Mesalazine],35,18.6 (0.5) cm,0.570 (0.031) g,0.235 (0.012),0.073 (0.012),242.5 (3.0) g,"increased number of K18 positive cells, similar to sham",28.5 [7.71],–
α-MSH,–,–,–,–,–,–,–,–,80
